Reference: paper PMC5522084, “Eg5 inhibitor YL001 induces mitotic arrest and inhibits tumor proliferation” (Oncotarget, 2017)

Tests used:
human cancer cell lines = assay: Antiproliferation screening of 23 selected compounds (Alamar Blue); assay type: cell-based; details: proliferation inhibition
Experimental: (§1) Cytotoxic activities of the compounds of interest were investigated with human cancer cell lines using the Alamar Blue assay. Cells (5 × 10^3 cells/well) were seeded into 96-well plates (Corning, 3603). Various sample concentrations (compounds of interest) were added to each well in duplicate, and incubated at 37°C with 5% CO2 for two days such that cells were in the exponential growth phase at the time of drug addition. Ten microliters of the Alamar Blue Solution (Invitrogen, Alamar Blue) were added to each well and incubated at 37°C for up to 2 hours in a humidified, 5% CO2 atmosphere. After incubation, florescence was measured using a microplate reader (Tecan) at an excitation wavelength of 540 nm and emission of 590 nm. Each inhibitory concentration was measured in triplicate, and averaged data points ± SD are shown. Statistical analysis was carried out with GraphPad Prism 5 and the fifty-percent effective concentration is expressed as EC50.

Eg5 motor domain = target: T1, Eg5 motor domain (Homo sapiens, UniProt P52732); assay: SPR assay (Biacore T200); assay type: binding; details: for Binding Level (RU): SPR screening
T1 sequence (P52732 18-359 limits assumed): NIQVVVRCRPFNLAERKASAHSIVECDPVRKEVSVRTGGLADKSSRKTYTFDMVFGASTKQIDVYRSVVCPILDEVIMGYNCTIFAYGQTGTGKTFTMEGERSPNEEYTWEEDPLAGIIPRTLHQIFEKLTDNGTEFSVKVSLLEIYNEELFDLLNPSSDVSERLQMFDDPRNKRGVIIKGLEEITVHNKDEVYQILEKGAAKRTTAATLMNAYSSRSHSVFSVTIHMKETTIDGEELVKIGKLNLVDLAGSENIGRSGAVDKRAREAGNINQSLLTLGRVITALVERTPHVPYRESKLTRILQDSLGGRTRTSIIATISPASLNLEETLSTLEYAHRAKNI
Experimental: Interactions of the Eg5 motor domain and compounds of interest were analyzed using the Biacore T200 system (GE Healthcare, Uppsala, Sweden) at 25°C. Eg5 motor protein obtained as previously described (51) was immobilized on a sensor chip (CM5) using an amine coupling kit (GE Healthcare, Buckinghamshire, UK). […] For binding studies, analytes were applied at corresponding concentrations in running buffer at a flow rate of 30 μL/minute with a contact time of 60 seconds and a dissociation time of 60 seconds. Chip platforms were washed with running buffer and 50% DMSO. Data were analyzed with Biacore evaluation software (T200 Version 1.0) by curve fitting using a steady state 1:1 binding model and a kinetic model.

HeLa = assay: Antiproliferation assay (Alamar Blue), HeLa; assay type: cell-based; details: Homo sapiens, 48 h, HeLa cell line, two days
Experimental: as §1

Eg5 = Eg5 (Homo sapiens, UniProt P52732); assay: Inhibition of Eg5 ATPase activity; assay type: biochemical; details: read-out: Enzyme EC50
Chain of Eg5 (P52732 whole entry): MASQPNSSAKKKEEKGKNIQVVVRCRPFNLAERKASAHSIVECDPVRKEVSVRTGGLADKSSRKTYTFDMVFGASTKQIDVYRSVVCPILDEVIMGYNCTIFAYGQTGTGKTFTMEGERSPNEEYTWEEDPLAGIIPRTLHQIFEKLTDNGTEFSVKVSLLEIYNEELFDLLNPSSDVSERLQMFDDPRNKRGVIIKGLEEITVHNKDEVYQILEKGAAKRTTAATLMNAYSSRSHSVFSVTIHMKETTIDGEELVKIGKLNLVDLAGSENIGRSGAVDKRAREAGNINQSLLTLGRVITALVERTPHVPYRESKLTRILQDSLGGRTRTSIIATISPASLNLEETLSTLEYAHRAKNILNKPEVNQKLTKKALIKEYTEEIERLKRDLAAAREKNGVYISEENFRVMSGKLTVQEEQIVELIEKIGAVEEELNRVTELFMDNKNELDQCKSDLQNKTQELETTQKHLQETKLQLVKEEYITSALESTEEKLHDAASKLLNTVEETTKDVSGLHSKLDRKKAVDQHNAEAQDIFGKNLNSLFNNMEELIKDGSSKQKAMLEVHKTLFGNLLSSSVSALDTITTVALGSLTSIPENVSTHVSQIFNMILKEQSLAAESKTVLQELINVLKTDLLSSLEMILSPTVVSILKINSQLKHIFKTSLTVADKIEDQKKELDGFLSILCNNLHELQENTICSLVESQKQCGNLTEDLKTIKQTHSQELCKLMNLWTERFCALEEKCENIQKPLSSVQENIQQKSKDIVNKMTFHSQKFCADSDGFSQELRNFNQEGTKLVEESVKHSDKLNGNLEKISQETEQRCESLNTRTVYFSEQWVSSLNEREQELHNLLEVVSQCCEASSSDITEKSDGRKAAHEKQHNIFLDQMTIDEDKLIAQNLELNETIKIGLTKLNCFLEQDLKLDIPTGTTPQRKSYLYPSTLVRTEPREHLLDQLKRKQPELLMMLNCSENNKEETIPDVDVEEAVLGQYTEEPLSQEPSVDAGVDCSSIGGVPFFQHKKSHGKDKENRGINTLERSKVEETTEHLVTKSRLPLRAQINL
Experimental: All experiments were performed as previously described. Data were analyzed using GraphPad Prism 5 and Microsoft Excel to obtain EC50 values. […] Each inhibitory concentration was measured in triplicate, and averaged data points ± SD are shown.

HeLa cells = assay: Colony formation; assay type: cell-based; details: Homo sapiens, exposed 24 hours, cultured 10 days
Experimental: HeLa cells (5 × 10^2 cells/well) were seeded into 6-well plates and were treated with a series of gradient concentrations of YL001 for 24 hours, followed by washing and continual culture for 10 days. DMSO was used as a negative control, and STLC was used as a positive control. Cells were fixed with ethanol for more than 30 minutes and dyed with crystal violet for more than 30 minutes. Clones were counted with OpenCFU [54].

SMILES | Binding Level (RU) (Eg5 motor domain) | Inhibition (50 μM) (human cancer cell lines) | other results
CN(C)CCN1C(=O)C(=O)/C(=C(/O)c2ccccc2)C1c1ccc2c(c1)OCO2 (stereo not drawn) [AG-205/13765047] | 3.4 RU | –18.48% | 
Cc1ccc(N2C(=O)CSC23C(=O)N(CN2CCN(c4ccccc4)CC2)c2ccccc23)cc1C (stereo not drawn) [AG-205/13460017] | 44.5 RU | 30.78% | 
O=[N+]([O-])c1ccc(COc2ccccc2C2N(Cc3ccccc3)CCN2Cc2ccccc2)cc1 [AG-205/14740101] | 27.7 RU | 0.87% | 
CCOC(=O)C1C2c3ccccc3C(c3ccccc32)C1C(=O)OCC (stereo not drawn) [AE-842/33003047] | 14.6 RU | –30.66% | 
OC(COCc1ccc2c(c1)OCO2)CN1CCN(C(c2ccccc2)c2ccccc2)CC1 (stereo not drawn) [AF-399/14739190] | 36.9 RU | 22.02% | 
CC(=O)Nc1sc2c(c1C(c1ccc(OC(F)F)cc1)N1CCOCC1)CCCC2 (stereo not drawn) [AF-399/41981012] | 3.8 RU | 14.85% | 
CC1(C)CC(=O)C2=C(C1)OC(N)=C(C#N)C21C(=O)N(Cc2ccccc2Cl)c2ccccc21 (stereo not drawn) [AM-807/14957480] | 16.3 RU | 30.76% | 
COc1ccc(C(OCC2OC(n3cnc4c(N)ncnc43)C(O)C2O)(c2ccccc2)c2ccccc2)cc1 (stereo not drawn) [Compound 7170] |  |  | Kd (Eg5 motor domain; SPR Biacore T200, 25°C): 1130 nM; EC50 (HeLa): 13300 ± 1320 nM; EC50 (Eg5): 18000 nM
N[C@@H](CSC(c1ccccc1)(c1ccccc1)c1ccccc1)C(=O)O [STLC, S-Trityl-L-cysteine, reference compound] |  |  | EC50 (HeLa): 1460 ± 60 nM; IC50 (HeLa cells): 1250 nM
COC(=O)C1NC(c2ccc(F)cc2)(c2ccc(F)cc2)C2C(=O)N(c3ccc(Cl)cc3)C(=O)C12 (stereo not drawn) [AH-487/42271989] | 31.9 RU | 41.63% | 
CC(=O)C1=NN(c2ccc(Cl)cc2)C(c2ccc3c(c2)OCO3)N1c1ccccc1 (stereo not drawn) [AK-778/11811129] | 59.8 RU | 9.38% | 
COC(=O)CN1C(c2ccccc2)=Nc2ccc(Br)cc2C1c1ccccc1 (stereo not drawn) [AG-690/36921098] | 61.1 RU | 21.81% | 
Cn1cc(C2C(=O)NC(c3ccccc3)=NN2C(=O)c2ccccc2)c2ccccc21 (stereo not drawn) [AG-227/37394007] | 8.7 RU | 97.78% | 
N#CC1=C(N)Oc2n[nH]c(-c3cccc4ccccc34)c2C1c1cccc(O)c1 (stereo not drawn) [AJ-292/15089069] | 100.1 RU | 58.97% | 
Cc1ccc(-n2nnnc2/C(=C/N(C)C)C(=O)c2cccc(C(F)(F)F)c2)cc1 [AG-401/37257005] | 18.8 RU | 95.06% | 
CC(=O)C1=NN(c2ccc(C)cc2)C(c2c[nH]c3ccccc23)N1c1ccc(C)cc1 (stereo not drawn) [AN-465/13570058] | 7.4 RU | 98.24% | 
CCOC(=O)C1=CN2C(C=C1)C(C(=C(C#N)C#N)C1CC1)C(c1ccccc1)C2C(=O)c1ccccc1 (stereo not drawn) [AG-205/33162003] | 32.8 RU | 60.89% | 
NC1=C(C(=O)OCc2ccccc2)C2(C(=O)Nc3ccc(Br)cc32)C2=C(CCCC2=O)O1 (stereo not drawn) [AK-777/10805059] | 20.7 RU | 31.51% | 

The next lines start with results.

Binding Level (RU) (Eg5 motor domain) | SMILES | Inhibition (50 μM) (human cancer cell lines) | other results
1.9 RU | Cc1ccc(C2C3=C(CCCC3=O)N(c3ccc(Br)cc3)C(=N)/C2=C(/O)c2ccccc2)cc1 (stereo not drawn) [AN-919/14547113] | 21.56% | 
56.4 RU | Cc1ccc(N=C2S/C(=C/c3ccccc3OCC(=O)N3CCOCC3)C(=O)N2Cc2ccccc2)cc1 [AO-081/41364431] | 29.79% | 
60.7 RU | CCc1cc(C(c2ccccc2F)N2CCOCC2)c(NC(=O)c2ccccc2)s1 (stereo not drawn) [AP-906/42853823] | 19.16% | 
2.3 RU | Cc1ccc(SC(c2ccccc2)C(Cn2cncn2)C(=O)c2ccc(Br)cc2)cc1 (stereo not drawn) [AQ-714/41675002] | 32.65% | 
57.7 RU | Cc1ccc(N2C(=N)/C(=C(/O)c3ccccc3)C(c3ccc([N+](=O)[O-])cc3)C3=C2CCCC3=O)cc1Cl (stereo not drawn) [AN-919/14545008] | 26.79% | 
56.6 RU | Cc1ccc(/C(O)=C2\C(=N)N(c3ccccc3)C3=C(C(=O)CCC3)C2c2ccccc2)cc1 (stereo not drawn) [AN-919/14547078] | 30.07% | 
69.6 RU | N=C1/C(=C(/O)c2ccccc2)C(c2ccccc2)C2=C(CCCC2=O)N1c1ccc(Br)cc1 (stereo not drawn) [AN-919/14547075] | 27.56% | 
